Columns and labels:
Type in all cases: biochemical, rat
Adenylate Cyclase = assay: Generation of an enzyme modulator from liver plasma membranes, adenylate cyclase readout
Description: (§1) Purification of the Enzyme Modulator. Bovine liver particulate fraction was prepared as described previously [Saltiel A. R., (1984) "Preparation and Characterization of Putative Insulin Mediators from Liver", METHODS IN DIABETES […], eds. J. Larner, S. Pohl, I:73]. Solutions were incubated in 5 mM ammonium bicarbonate, pH 7.4 with 10 nM insulin or 1 ug/ml PI-PLC as described in the figure legends. Following incubation, solutions were acidified to pH 4.0 and centrifuged at 35,000 x g for 20 minutes. Resulting supernatants were extracted with chloroform/methanol (2:1). The upper aqueous phase was aspirated and methanol was evaporated. Enzyme modulating activities were purified as described in Publication No. 6 listed earlier herein. Briefly, the extract was chromatographed on DEAE-Cellulose and eluted with 0.25M triethylamine (TEA)-formate, pH 3.75. This was followed by chromatography on C-18 reversed phase resin, in the same buffer, followed by Dowex 50W X-4 in 50 mM TEA-formate, pH 3.0. The resulting eluate was lyophilized, resuspended in 50 mM TEA-formate, pH 4.5 and sequentially chromatographed on QAE-Sephadex, SAX HPLC and a P-2 gel filtration column. Only the cyclic inositol phosphate derivative residing in Peak I was examined.
(§2) Enzyme Assays. The low Km cAMP PDE was assayed in a rat adipocyte particulate fraction as previously described [Saltiel, A. R., Steigerwalt,R. W., (1986) "Purification of Putative Insulin-Sensitive cAMP Phosphodiesterase or its Catalytic Domain From Rat Adipocytes", DIABETES, 35:698] and as later modified in Publication No. 6. Activity was linear throughout 20 min. and proportional to protein concentration. Only the low Km species of the enzyme was present in this fraction. PDH activity was assayed in liver mitoplasts after preincubation with ATP as previously described [Saltiel et al., (1982) PROC. NATL. ACAD. SCI. U.S.A., 79:3513.]. Adenylate cyclase activity was also assayed in purified adipocyte plasma membranes. For all enzyme assays, variability was less than 5%.
(§3) Liver membranes were treated with or without 10 nM insulin or 1 ug/ml PI-PLC for 10 min. at 37° C. Following cetrifugation, the supernatants were extracted and purified up to and including the SAX HPLC step. Purified extracts were added to enzyme assays at a final dilution of 1:10. Enzyme activities were assayed with no additions or after addition of purified extracts from control, insulin or PIPPLC treated membrane. Percent of basal activity is expressed in parentheses. ^1 expressed as pmoles/mg protein-min. ^2 expressed as nmoles/mg protein-min.

cAMP phosphodiesterase = assay: Generation of PDE messenger from liver membranes by insulin or PI-PLC; extracts assayed on cAMP phosphodiesterase
Description: These were generated from bovine liver particulate fractions by a modification of previously described methods. Particulate fraction was prepared from 100 g of bovine liver, and suspended in […] ammonium bicarbonate, pH 7.4. (Buffer A) at a final concentration of 2-4 mg protein/ml. This solution was incubated with […] for 10 min at 37° C., acidified to pH 4.0 with formic acid and sedimented at 45,000 g for 20 min. An equal volume of chloroform/methanol (2:1) was added to the supernatant, and the upper phase was aspirated and methanol was evaporated.
In the tests the results of which are tabulated above, liver membranes were treated as indicated for 10 min at 37° C., centrifuged and supernatants were extracted and purified up to and including the Dowex 50WX-4 step as described earlier herein under "Experimental Frocedures".
Partially purified extracts were assayed for ability to modulate cAMP phosphodiesterase. Basal activity was 56.2 pmoles/mg protein^-1 -min^-1.

Pyruvate Dehydrogenase = assay: Generation of an enzyme modulator from liver plasma membranes, pyruvate dehydrogenase readout
Description: as §1, §2, §3

[1] = membranes exposed to 10 nM insulin 10 min.

**Q.** Insulin: monocomponent bovine insulin was tested. Which “Adenylate Cyclase activity” value (Adenylate Cyclase; extract as E41, no addition 272±14, control membranes 210±4) did it give?
**A.** The value was 72.0±3.7 pmoles/mg protein-min.

**Q.** What about the “inhibition of adenylate cyclase by the substance generated” value (Adenylate Cyclase; [1]) of the same substance?
**A.** The value was 75%.

**Q.** What about the “stimulation/increase of production of PDE modulating activity from membranes” value (cAMP phosphodiesterase; after partial purification, PI-PLC 1.0 ug/ml) of the same substance?
**A.** The value was 4 fold.

**Q.** What about the “PDE Activity” value (cAMP phosphodiesterase; extract of liver membranes treated 10 min at 37° C. (1.0 nM Insulin, PI-PLC), purified up to Dowex 50WX-4, basal 56.2, untreated membranes 78.5) of the same substance?
**A.** Its value is 138.0 pmol mg protein^-1 min^-1.

**Q.** What about the “Pyruvate Dehydrogenase activity” value (Pyruvate Dehydrogenase; extract as E41, no addition 1.77±0.07, control membranes 2.45±0.20) of the same substance?
**A.** The value was 4.80±0.38 nmoles/mg protein-min.

**Q.** What about the “stimulation of PDH by the substance generated” value (Pyruvate Dehydrogenase; [1]) of the same substance?
**A.** The value was 2-3 fold.

— patent US4839466A, “Insulin activity messengers” (The Rockefeller University, priority 1987, dated 1989)
